Reference: PubChem BioAssay AID1259407 (Chemical Carcinogenesis Research Information System (CCRIS), 2018)
Active and inactive are the calls of the source. The rule behind the calls is not given here.

Tested on: CCRIS mutagenicity, Ames/micronucleus/aberration tests
Assay: CCRIS mutagenicity studies
[1] = Test System: AMES SALMONELLA TYPHIMURIUM, Strain/Indicator: TA98, Metabolic Activation: NONE, Method: PREINCUBATION
[2] = Test System: AMES SALMONELLA TYPHIMURIUM, Strain/Indicator: TA100, Metabolic Activation: NONE, Method: PREINCUBATION
[3] = Test System: AMES SALMONELLA TYPHIMURIUM, Strain/Indicator: TA1535, Metabolic Activation: NONE, Method: PREINCUBATION
[4] = Test System: AMES SALMONELLA TYPHIMURIUM, Strain/Indicator: TA1537, Metabolic Activation: NONE, Method: PREINCUBATION

Measured: mutagenic call

CCCC(=O)O[C@H]1[C@H](C)O[C@@H](O[C@H]2[C@H](N(C)C)[C@@H](O)[C@H](O[C@H]3[C@@H](CC=O)C[C@@H](C)[C@@H](O)/C=C/C=C/C[C@@H](C)OC(=O)C[C@@H](O)[C@@H]3OC)O[C@@H]2C)C[C@@]1(C)OC(=O)CC
inactive: [1] inactive; negative | Test System: AMES SALMONELLA TYPHIMURIUM, Strain/Indicator: TA98, Metabolic Activation: RAT, LIVER, S-9, AROCLOR 1254, Method: PREINCUBATION inactive; negative | [2] inactive; negative | Test System: AMES SALMONELLA TYPHIMURIUM, Strain/Indicator: TA100, Metabolic Activation: RAT, LIVER, S-9, AROCLOR 1254, Method: PREINCUBATION inactive; negative | [3] inactive; negative | Test System: AMES SALMONELLA TYPHIMURIUM, Strain/Indicator: TA1535, Metabolic Activation: RAT, LIVER, S-9, AROCLOR 1254, Method: PREINCUBATION inactive; negative | [4] inactive; negative | Test System: AMES SALMONELLA TYPHIMURIUM, Strain/Indicator: TA1537, Metabolic Activation: RAT, LIVER, S-9, AROCLOR 1254, Method: PREINCUBATION inactive; negative | Test System: AMES SALMONELLA TYPHIMURIUM, Strain/Indicator: TA1538, Metabolic Activation: NONE, Method: PREINCUBATION inactive; negative | Test System: AMES SALMONELLA TYPHIMURIUM, Strain/Indicator: TA1538, Metabolic Activation: RAT, LIVER, S-9, AROCLOR 1254, Method: PREINCUBATION inactive; negative | Test System: E. COLI, Strain/Indicator: WP2 UVRA, Metabolic Activation: NONE, Method: PREINCUBATION inactive; negative | Test System: E. COLI, Strain/Indicator: WP2 UVRA, Metabolic Activation: RAT, LIVER, S-9, AROCLOR 1254, Method: PREINCUBATION inactive; negative

C[n+]1ccc(-c2ccccn2)cc1
active: Test System: AMES SALMONELLA TYPHIMURIUM, Strain/Indicator: TA98, Metabolic Activation: RAT, LIVER, S-9, PHENOBARBITAL, Method: STANDARD PLATE active; positive
inactive: Test System: AMES SALMONELLA TYPHIMURIUM, Strain/Indicator: TA97, Metabolic Activation: RAT, LIVER, S-9, PHENOBARBITAL, Method: STANDARD PLATE inactive; negative | Test System: AMES SALMONELLA TYPHIMURIUM, Strain/Indicator: TA100, Metabolic Activation: RAT, LIVER, S-9, PHENOBARBITAL, Method: STANDARD PLATE inactive; negative | Test System: AMES SALMONELLA TYPHIMURIUM, Strain/Indicator: TA1535, Metabolic Activation: RAT, LIVER, S-9, PHENOBARBITAL, Method: STANDARD PLATE inactive; negative | Test System: AMES SALMONELLA TYPHIMURIUM, Strain/Indicator: TA1537, Metabolic Activation: RAT, LIVER, S-9, PHENOBARBITAL, Method: STANDARD PLATE inactive; negative | Test System: AMES SALMONELLA TYPHIMURIUM, Strain/Indicator: TA1538, Metabolic Activation: RAT, LIVER, S-9, PHENOBARBITAL, Method: STANDARD PLATE inactive; negative

CNc1ccc2nccnc2c1C
inactive: [1] inactive; negative | [2] inactive; negative
active: Test System: AMES SALMONELLA TYPHIMURIUM, Strain/Indicator: TA98, Metabolic Activation: RAT, LIVER, S-9, PCB, Method: PREINCUBATION active; positive

CCCCCCCCCCCCOCCO
inactive: End Point: IN VITRO CHROMOSOMAL ABERRATIONS, Test System: CHO-LB CELLS, Metabolic Activation: NONE inactive; negative | End Point: IN VITRO CHROMOSOMAL ABERRATIONS, Test System: CHO-LB CELLS, Metabolic Activation: RAT, LIVER, S-9, AROCLOR 1254 inactive; negative | Test System: AMES SALMONELLA TYPHIMURIUM, Strain/Indicator: TA98, Metabolic Activation: HAMSTER, LIVER, S-9, AROCLOR 1254 (10%), Method: PREINCUBATION inactive; negative | [1] inactive; negative | Test System: AMES SALMONELLA TYPHIMURIUM, Strain/Indicator: TA98, Metabolic Activation: RAT, LIVER, S-9, AROCLOR 1254 (10%), Method: PREINCUBATION inactive; negative | Test System: AMES SALMONELLA TYPHIMURIUM, Strain/Indicator: TA100, Metabolic Activation: HAMSTER, LIVER, S-9, AROCLOR 1254 (10%), Method: PREINCUBATION inactive; negative | [2] inactive; negative | Test System: AMES SALMONELLA TYPHIMURIUM, Strain/Indicator: TA100, Metabolic Activation: RAT, LIVER, S-9, AROCLOR 1254 (10%), Method: PREINCUBATION inactive; negative | Test System: AMES SALMONELLA TYPHIMURIUM, Strain/Indicator: TA1535, Metabolic Activation: HAMSTER, LIVER, S-9, AROCLOR 1254 (10%), Method: PREINCUBATION inactive; negative | [3] inactive; negative | Test System: AMES SALMONELLA TYPHIMURIUM, Strain/Indicator: TA1535, Metabolic Activation: RAT, LIVER, S-9, AROCLOR 1254 (10%), Method: PREINCUBATION inactive; negative | Test System: AMES SALMONELLA TYPHIMURIUM, Strain/Indicator: TA1537, Metabolic Activation: HAMSTER, LIVER, S-9, AROCLOR 1254 (10%), Method: PREINCUBATION inactive; negative | [4] inactive; negative | Test System: AMES SALMONELLA TYPHIMURIUM, Strain/Indicator: TA1537, Metabolic Activation: RAT, LIVER, S-9, AROCLOR 1254 (10%), Method: PREINCUBATION inactive; negative | Test System: E. COLI, Strain/Indicator: WP2 UVRA, Metabolic Activation: NONE, Method: STANDARD PLATE inactive; negative | Test System: E. COLI, Strain/Indicator: WP2 UVRA, Metabolic Activation: S-9, Method: STANDARD PLATE inactive; negative

COc1cc(O)c2c(=O)c3c(O)ccc(O)c3oc2c1
active: Test System: AMES SALMONELLA TYPHIMURIUM, Strain/Indicator: TA97, Metabolic Activation: NONE, Method: PREINCUBATION active; positive | Test System: AMES SALMONELLA TYPHIMURIUM, Strain/Indicator: TA97, Metabolic Activation: RAT, LIVER, S-9, PHENOBARBITAL AND 5,6-BENZOFLAVONE, Method: PREINCUBATION active; positive | Test System: AMES SALMONELLA TYPHIMURIUM, Strain/Indicator: TA2637, Metabolic Activation: RAT, LIVER, S-9, PHENOBARBITAL AND 5,6-BENZOFLAVONE, Method: PREINCUBATION active; positive
inactive: Test System: AMES SALMONELLA TYPHIMURIUM, Strain/Indicator: TA98, Metabolic Activation: RAT, LIVER, S-9, PHENOBARBITAL AND 5,6-BENZOFLAVONE, Method: PREINCUBATION inactive; negative | Test System: AMES SALMONELLA TYPHIMURIUM, Strain/Indicator: TA100, Metabolic Activation: RAT, LIVER, S-9, PHENOBARBITAL AND 5,6-BENZOFLAVONE, Method: PREINCUBATION inactive; negative

CN(C)N=Nc1ccccc1
active: Test System: AMES SALMONELLA TYPHIMURIUM, Strain/Indicator: G46, Metabolic Activation: NONE, Method: STANDARD PLATE active; positive | Test System: AMES SALMONELLA TYPHIMURIUM, Strain/Indicator: G46, Metabolic Activation: RAT, LIVER, S-9, PHENOBARBITAL, Method: STANDARD PLATE active; positive
